From patent US10072293B2, “Systems, models and methods for identifying and evaluating skin-active agents effective for treating dandruff/seborrheic dermatitis” (The Procter and Gamble Company, priority 2011, dated 2018)
Where “and” joins values, the source holds several entries; their conditions need not be identical. Equal entries are not always repeated.

What was measured:
[1] = tested on: human 3-dimensional organotypic cultures; assay: In vitro model of dandruff: organotypic skin cultures given IL-22 and IL-17A; assay type: cell-based; conditions: organotypic cultures treated with IL-22 and IL-17A
Source text: In some embodiments, the methods of the present invention may further comprise testing the selected candidate cosmetic agent, using in vitro assays and/or in vivo testing, to validate the activity of the agent and usefulness as a cosmetic agent. Any suitable in vitro test method can be used, including those known in the art, and most preferably in vitro models developed in accordance with the present invention. For example, MatTek human skin equivalent cultures or other skin equivalent cultures may be treated with one or a combination of perturbagens selected for mimicry of the skin condition of interest with respect to regulation of the genes constituting a physiological theme pattern for the skin condition of interest. The treated skin culture replicates the, for example, dandruff condition where it is treated with IL17 and IL22 in accordance with the instant invention, and perturbagens may be screened for their ability to shift the homeostatic equilibrium of the treated skin culture toward healthy skin, as determined by transcriptional analysis. Skin biopsy assays may also be used to evaluate candidate skin-active agents as anti-dandruff agents. In some embodiments, evaluation of selected agents using in vitro assays may reveal, confirm, or both, that one or more new candidate cosmetic agents may be used in conjunction with a known cosmetic agent (or a combination of known cosmetic agents) to regulate a skin condition of interest.
A great challenge in the identification of new therapeutics is the development of in vitro models that are predictive of clinical efficacy. Because no animal models of the dandruff condition are available, there is a need for a model with high fidelity to the internal disease state so that it recapitulates the key features of dandruff lesional skin in vivo. The challenge of developing a good in vitro model for skin conditions such as dandruff is complicated by the fact that the events that trigger the development of dandruff are poorly understood. Transcriptomic profiling work in dandruff lesional skin has provided many new clues, chief among them evidence for a Th-17 driven inflammatory process.
These substances include selenium sulfide, ZPT, ketoconazole, clobetasol propionate and the iron chelator 1,10-phenanthroline.
The in vitro disease simulation according to the invention produces a pattern of gene expression that strongly resembles dandruff lesional skin. Affymetrix U133A Plus 2 microarrays were used to evaluate the gene expression profile elicited by exposure of organotypic human skin cultures to a variety of proinflammatory cytokines individually and in combination, as set forth in FIG. 21A and FIG. 21B. […] This strongly supports that the simulation is producing a gene expression pattern that resembles the disease condition.

[2] = tested on: Human telomerized keratinocytes (tKC); assay: C-map query with lipid metabolism / immune-inflammation dandruff gene signature, keratinocyte instances; assay type: cell-based
Source text: In a very specific embodiment, an instance consists of the rank ordered data for all of the probe sets on the Affymetrix HG-U133A2.0 GeneChip wherein each probe on the chip has a unique probe set IDentifier. The probe sets are rank ordered by the fold change relative to the controls in the same C-map batch (single instance/average of controls).
Individual experiments (referred to as batches) generally comprise 30 to 96 samples analyzed using Affymetrix GeneChip® technology platforms, containing 6 replicates of the vehicle control (e.g., DMSO), 2 replicate samples of a positive control that gives a strong reproducible effect in the cell type used, and samples of the test material/perturbagen. Replication of the test material is done in separate batches due to batch effects. In vitro testing was performed in 6-well plates to provide sufficient RNA for GeneChip® analysis (2-4 μg total RNA yield/well).
(§1) Human telomerized keratinocytes (tKC) were obtained from the University of Texas, Southwestern Medical Center, Dallas, Tex. tKC cells were grown in EpiLife® media with 1× Human Keratinocyte Growth Supplement (Invitrogen, Carlsbad, Calif.) on collagen I coated cell culture flasks and plates (Becton Dickinson, Franklin Lakes, N.J.). Keratinocytes were seeded into 6-well plates at 20,000 cells/cm^2 24 hours before chemical exposure. Human skin fibroblasts (BJ cell line from ATCC, Manassas, Va.) were grown in Eagle's Minimal Essential Medium (ATCC) supplemented with 10% fetal bovine serum (HyClone, Logan, Utah) in normal cell culture flasks and plates (Corning, Lowell, Mass.). BJ fibroblasts were seeded into 6-well plates at 12,000 cells/cm^2 24 hours before chemical exposure.
All cells were incubated at 37° C. in a humidified incubator with 5% CO2. At t=−24 hours cells were trypsinized from T-75 flasks and plated into 6-well plates in basal growth medium. At t=0 media was removed and replaced with the appropriate dosing solution as per the experimental design.

[3] = tested on: reconstituted human epidermis (RHE); assay: Connectivity map linkage scores, inflammatory skin disorder signature (top 70 up / 70 down), RHE instances; assay type: cell-based; set-up: scale not given here
Source text: (§2) Gene expression data from five inflammatory skin disorders (acne, atopic dermatitis, dandruff, eczema and psoriasis) were collected from a clinical genomics study and published studies. The raw expression data were used to produce a rank-ordered list of most differentially regulated genes associated with inflammatory skin disorders.
(§3) The derived gene signature was used to query a provided database comprising gene expression data from clinical genomics studies of a widely different inflammatory skin disorders, published in vitro genomics studies of disparate inflammatory skin disorders, and genomics data from an internal in vitro model of dandruff inflammatory pathology (human organotypic, MatTek, cultures).

[4] = tested on: fibroblast and keratinocyte cell lines; assay: C-map query with lipid-immune dandruff signature, whole database; assay type: cell-based, human; conditions: each agent tested at several concentrations
Method: as §1
Each agent was tested at several concentrations.

[5] = tested on: scalp skin of dandruff subjects; assay: ZPT transcriptomics study: double-blind, vehicle-controlled shampoo treatment, scalp biopsy gene expression; assay type: in vivo, human; conditions: shampoo with 1% ZPT, 3 times a week for 3 weeks, week 3
Source text: 1) 31 healthy male subjects aged 18-75 were divided into two groups of 16 “non-dandruff” and 15 “dandruff” subjects, as defined by a published flake scoring procedure, adherent scalp flake score (ASFS). […] 2) In a double-blinded treatment study, 45 healthy male subjects (30 dandruff and 15 non-dandruff as defined by ASFS criteria, aged 18-50 years) were enrolled and were shampooed at the clinical site three (3) times a week for three (3) weeks with either a commercially available anti-dandruff shampoo with 1% ZPT (15 dandruff subjects) or the same formula without ZPT (15 dandruff and 15 non-dandruff subjects). Full thickness 2 mm biopsies were collected from all three groups at baseline and end of study. Total RNA was extracted from the biopsies and labeled for Affymetrix GeneChip® analysis. The synthesized target cRNA was hybridized to Affymetrix HG U133A microarrays. Statistically analyzed data were filtered by significance (p<0.05, Dandruff vs. Non-Dandruff; ZPT vs. vehicle treatments) to identify genes showing an increase or decrease in expression level, a standard bioinformatics approach. Methodology and Results of Study 1:
The subject's hair/scalp was washed by study personnel on clinical site 3×/week for 3 weeks. Full thickness 2 mm punch biopsies collected at baseline and end of study. […]

[6] = tested on: human keratinocytes (hKC); assay: Connectivity map linkage scores, inflammatory skin disorder signature, hKC instances; assay type: cell-based
Source text: as §2
as §3, with “cultures). […] Thus, the internal model was validated as being useful for study of inflammatory cascades and other gene expression alterations associated with inflammatory skin disorders.” for “cultures).”

[7] = tested on: MCF7; assay: C-map query with lipid metabolism / immune-inflammation dandruff gene signature, MCF7 instances; conditions: MCF7, 10 μM

`c1cnc2c(c1)ccc1cccnc12` [1,10-phenanthroline] was tested, and the “Blocking of IL-22/IL-17A-induced responses (hyperplasia, perturbed differentiation markers, IL-8 secretion)” value [1] was “capable of blocking these responses”.

`CC(C)(C)C(=O)C(Oc1ccc(Cl)cc1)n1ccnc1` (centres unmarked) [Climbazole] was tested, and the “Score (connectivity score)” value ([2]; 1 μM, 6hr (chip ID)) was −0.55 and the “Score (connectivity score)” value ([2]; 10 μM, 24hr (chip ID)) was −0.67.

`CCC(=O)O[C@]1(C(=O)CCl)[C@@H](C)C[C@H]2[C@@H]3CCC4=CC(=O)C=C[C@]4(C)[C@@]3(F)[C@@H](O)C[C@@]21C` [Clobetasol Propionate] was tested, and the “Blocking of IL-22/IL-17A-induced responses (hyperplasia, perturbed differentiation markers, IL-8 secretion)” value [1] was “capable of blocking these responses”.

In the case of IL1b: interleukin, the Score ([3]; 10 ng/ml) is reported as 0.710 and 0.649 and the “Up Score” value ([3]; 10 ng/ml) is reported as 0.420 and 0.380.

In the case of `[O-]n1ccccc1=S.[O-]n1ccccc1=S.[Zn+2]` [ZPT, zinc salt of 1-hydroxy-2-pyrithione], the “Blocking of IL-22/IL-17A-induced responses (hyperplasia, perturbed differentiation markers, IL-8 secretion)” value [1] is reported as “capable of blocking these responses”, the “Linkage to lipid-immune dandruff gene signature” value [4] is reported as “not in the list of instances strongly linked to the gene signature” and the “Scalp gene expression profile shift (~3700 significantly altered genes, hierarchical clustering)” value [5] is reported as “expression shift toward the non-dandruff condition”.

For “HK23/2 IL17: interleukin; proinflammatory cytokine produced by Th-17 cells”, the “Down Score” value ([6]; 200 ng/ml) was −0.151, the Score ([6]; 200 ng/ml) was 0.579 and the “Up Score” value ([6]; 200 ng/ml) was 0.428.

With `O=C(O)Cc1cc(I)c(Oc2ccc(O)c(I)c2)c(I)c1` [Triac] the “Score (connectivity score)” value ([2]; 10 μM, exposure time not given) was −0.53.

In the case of `S=[Se]=S` [selenium sulfide], the “Blocking of IL-22/IL-17A-induced responses (hyperplasia, perturbed differentiation markers, IL-8 secretion)” value [1] is reported as “capable of blocking these responses” and the “Linkage to lipid-immune dandruff gene signature” value [4] is reported as “not in the list of instances strongly linked to the gene signature”.

In the case of `CN(CCOc1ccc(CC2SC(=O)NC2=O)cc1)c1ccccn1` (centres unmarked) [Rosiglitazone], the “Score (connectivity score)” value [7] is reported as −0.51.

For `CC(=O)N1CCN(c2ccc(OCC3COC(Cn4ccnc4)(c4ccc(Cl)cc4Cl)O3)cc2)CC1` (centres unmarked) [Ketoconazole], the “Score (connectivity score)” value ([2]; 1 μM, 24hr (chip ID)) was −0.58 and the “Blocking of IL-22/IL-17A-induced responses (hyperplasia, perturbed differentiation markers, IL-8 secretion)” value [1] was “capable of blocking these responses”.

B1: IL22: interleukin; proinflammatory cytokine produced by Th-17 cells (protein, UniProt Q9GZX6 34-179, looked up)
Interleukin-22: APISSHCRLDKSNFQQPYITNRTFMLAKEASLADNNTDVRLIGEKLFHGVSMSERCYLMKQVLNFTLEEVLFPQSDRFQPYMQEVVPFLARLSNRLSTCHIEGDDLHIQRNVQKLKDTVKKLGESGEIKAIGELDLLFMSLRNACI
B1 was tested, and the Score ([3]; 20 ng/ml) was 0.789 and 0.740 and 0.705, the “Up Score” value ([3]; 20 ng/ml) was 0.444 and 0.410 and 0.388 and the “Down Score” value ([6]; 200 ng/ml) was −0.214. The Score ([6]; 200 ng/ml) was 0.573 and the “Up Score” value ([6]; 200 ng/ml) was 0.358.

B2: IL19: interleukin (protein, UniProt Q9UHD0 25-177, looked up)
Interleukin-19: LRRCLISTDMHHIEESFQEIKRAIQAKDTFPNVTILSTLETLQIIKPLDVCCVTKNLLAFYVDRVFKDHQEPNPKILRKISSIANSFLYMQKTLRQCQEQRQCHCRQEATNATRVIHDNYDQLEVHAAAIKSLGELDVFLAWINKNHEVMFSA
For B2, the Score ([3]; 20 ng/ml) was 0.749 and 0.729 and 0.807 and the “Up Score” value ([3]; 20 ng/ml) was 0.410 and 0.460 and 0.505.

B3: IFNg: interferon (protein, UniProt P01579 24-161, looked up)
Interferon gamma: QDPYVKEAENLKKYFNAGHSDVADNGTLFLGILKNWKEESDRKIMQSQIVSFYFKLFKNFKDDQSIQKSVETIKEDMNVKFFNSNKKKRDDFEKLTNYSVTDLNVQRKAIHELIQVMAELSPAAKTGKRKRSQMLFRG
For B3, the Score ([3]; 10 ng/ml) was 0.665 and 0.657, the “Up Score” value ([3]; 10 ng/ml) was 0.420 and 0.431 and the “Down Score” value ([6]; 20 ng/ml) was −0.102. The Score ([6]; 20 ng/ml) was 0.552 and the “Up Score” value ([6]; 20 ng/ml) was 0.450.

B4: IL24: interleukin (protein, UniProt Q13007 52-206, looked up)
Interleukin-24: QEFHFGPCQVKGVVPQKLWEAFWAVKDTMQAQDNITSARLLQQEVLQNVSDAESCYLVHTLLEFYLKTVFKNYHNRTVEVRTLKSFSTLANNFVLIVSQLQPSQENEMFSIRDSAHRRFLLFRRAFKQLDVEAALTKALGEVDILLTWMQKFYKL
With B4 the Score ([3]; 20 ng/ml) was 0.833 and 0.829 and 0.801 and the “Up Score” value ([3]; 20 ng/ml) was 0.485 and 0.517 and 0.461.
